In data set [1] the test system is MG-63 cells. Nature of the data set: Cytotoxicity test against osteoblast (MTT). The data set is classed as cell-based, human. In short, it runs like this:
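MG-63 human osteosarcoma cells exposed to 0.1, 0.3, 1.0 and 3.0 μM compound in DMEM with 10% FBS. Osteoclast progenitors in the same text were run at 2, 4 and 8 μM, 48 h, α-MEM + 20 ng/ml M-CSF, 37 °C; MTT added 3 h before end, A550 as % of control.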

Data set [2] is described as follows: In vitro pharmacokinetics: metabolic stability in liver microsome. Conditions: human liver microsome 1 mg/ml, 20 μM compound; for half-life at 20 µM: liver microsomes. The data set is classed as in vitro ADME. As for the experimental part: Metabolic stabilities of the compounds of the Examples were examined by employing microsome samples prepared from the human liver.
Each 20 μM of the compounds were reacted with 1 mg/ml of liver microsome and the half-lives and one-hour stabilities of the compounds were determined.

Data set [3] deals with rats. The data set can be described thus: In vivo acute toxicity test (LD50). Conditions: single dose, 2 weeks observation. The procedure:
In order to determine the acute toxicities of the compounds prepared in Examples, 6-week old specific pathogen-free (SPF) rats each weighing […] were divided into groups of 10 rat each.
In case of subcutaneous administration, each of the compounds was dissolved in 5% PEG400 solution to a concentration of 20 mg/ml, the resulting solution was serially diluted with 5% PEG400 solution to concentrations of 5, 2.5, 1.25 and 0.625 mg/ml, and the dilutions were subcutaneously injected once to the rats at a dose of 10 ml/kg body weight.
In case of oral administration, each of the compounds was dissolved in soybean oil to a concentration of 180 mg/ml, the resulting solution was serially diluted with soybean oil to concentrations of 80, 20 and 5 mg/ml, and the dilutions were orally administered once to the rats at a dose of 20 ml/kg body weight. […]
During 2 weeks after the administration of the compounds, the death rate, clinical symptoms and weight changes of the rats were observed, and hematological and biochemical tests on blood samples were performed. Then, the rats were sacrificed and the internal organs were visually examined to check any abnormal signs in the organs of chest and abdomen.

For data set [4], the system named is osteoclast (TRAP-positive multinuclear cell) formation. The data set can be described thus: Inhibitory effect on osteoclast formation (TRAP staining). It counts as cell-based, mice. Conditions: Mus musculus, Osteoclast, compared to control, read-out: Osteoclast formation inhibitory effects (%). In short, it runs like this: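 Non-adherent bone marrow cells from 7–9-week-old female mice, 2×10^5 per well, cultured 8 days with M-CSF (20 ng/ml), RANKL (30 ng/ml) and compound at 0.3, 1.0 or 3 μM. Formation scored by TRAP staining after fixation, 1 h at 37 °C, pH 5.0.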

Data set [5] deals with female mice with osteoporosis induced by ovariectomy. Nature of the data set: Bone mineral density (BMD) of ovariectomized multiparous mice. The data set is classed as in vivo. Conditions: for decrease of BMD: after 8 weeks. As for the experimental part: The effect of Compound Nos. 274 and 388 of the present invention on BMD of female mice with osteoporosis induced by ovariectomy was examined as follows.
Specifically, after anesthetizing female mice used as a control by abdominal administration with a mixture of 10 mg/kg body weight of Ketamin HCl (Ketara) and 0.15 ml/kg body weight of 2% Xylazine HCl (Roupun), the lumbar dorsum of each mouse was shaved bilaterally and the exposed skin was prepared for aseptic surgery by a 10% povidone-iodine scrub followed by a 70% alcohol wipe. A 1-cm incision was made in the central region of the abdomen, and the ovaries were identified with caution not to damage the main organs such as the liver and diaphragm. The ovaries were ligated with a suture thread, and then severed. Thereafter, each organ was relocated to its original position, and the incision was closed with a suture thread in an interrupted pattern. After ovariectomy, the mice were injected with 0.088 mg/kg body weight of gentamicin to prevent infection.
To investigate the change in BMD of the mice, bone mineral density was measured before the ovariectomy and every two weeks for 8 weeks after the ovariectomy using a bone mineral densitometer, XCT 540 Research SA (Stratec, Germany). Specifically, BMD measurement was made at a voxel size of 0.1 mm×0.1 mm, threshold values of 280 mg/cm^2 for cancellous bone and 500 mg/cm^2 for compact bone, and the analysis sites at the proximal tibias were determined by Scout scans (10 mm/sec). BMD was measured at three slices at the determined sites by CT scans (7 mm/sec), and the measurement was performed twice or more at the same site.
Multiparous mice each weighing […] were subjected to ovariectomy in accordance with the method of (3-1). From the 2nd day to 12th week after the ovariectomy, the mice were injected subcutaneously once a day with 0.5 and 1 mg/kg body weight/day of Compound Nos. 274 and 388, respectively. Alternatively, the mice were administered orally with 2.5 and 7.5 mg/kg body weight/day of Compound Nos. 274 and 388. BMD was measured before the ovariectomy, and during the period of the 2nd week to 11th week after the ovariectomy.

Read-outs that look alike come from different tables or passages of the source. Where only a bound is given, the exact number is not on record here.

On to `CO/C=C(/C(=O)OC)c1ccc(Cl)cc1COc1ccc(OCCOC)cc1` [Compound No. 274, (E)-methyl-2-(2-((4-(2-methoxyethoxy)phenoxy)methyl)-4-chlorophenyl)-3-methoxyacrylate], for which the “relative absorbance relative to that of the control (set as 100), MTT” value in data set [1] (0.11 uM) turned out to be 113; in data set [1] (0.33 uM), 108; in data set [1] (1 uM), 106; in data set [1] (3 uM) it was 94. Further, in data set [2], the One-hour stability amounted to 72%. The half-life at 20 µM in data set [2] was above 180 min. Further, the figures for the LD50 in data set [3] (PO) and in data set [3] (SC) were 460 mg/kg body weight and 11 mg/kg body weight, respectively. In data set [4] (192 h, 0.3 μM, 8 days culture with M-CSF and RANKL), the inhibition at 0.3 µM amounted to 100%. In addition, the inhibition at 1 µM in data set [4] (192 h, 1.0 μM, 8 days culture with M-CSF and RANKL) was 100%. For the same compound, the inhibition at 3 µM in data set [4] (192 h, 3.0 μM, 8 days culture with M-CSF and RANKL) turned out to be 100%. For the same compound, the “increase of BMD” value in data set [5] (oral administration (2.5 and 7.5 mg/kg body weight/day), FIGS. 1a and 1b) is on record as 0.8%. Further, the “change of BMD” value in data set [5] (subcutaneous injection once a day (0.5 and 1 mg/kg body weight/day), FIGS. 1a and 1b) is listed as “no decrease of BMD”.
Turning to `CO/C=C(/C(=O)OC)c1ccccc1COc1cccc(N2CCCCC2)c1` [Compound No. 388, (E)-methyl-2-[2-((3-(piperidin-1-yl)phenoxy)methyl)phenyl]-3-methoxyacrylate], the “relative absorbance (MTT) relative to control (set as 100)” value in data set [1] (0.33 μM compound) was 105; in data set [1] (1 μM compound) it was 84; in data set [1] (3 μM compound), 81. This compound also yielded a half-life at 20 µM in data set [2] of 30.7 min. Also, the LD50 in data set [3] (PO) was 110-130 mg/kg body weight. Also, the inhibition at 0.1 µM in data set [4] (0.1 μM (Table 4b)) worked out at 0%. In addition, the inhibition at 0.3 µM in data set [4] (0.3 μM (Table 4b)) was determined as 99%. For the same compound, the inhibition at 1 µM in data set [4] (1 μM (Table 4b)) stood at 100%. In addition, the inhibition at 3 µM in data set [4] (3 μM (Table 4b)) turned out to be 100%. The “decrease of BMD” value came out at 10.6% in data set [5] (oral administration 2.5 mg/kg), 10.2% in data set [5] (oral administration 7.5 mg/kg), 5.0% in data set [5] (subcutaneous injection 0.5 mg/kg) and 6.7% in data set [5] (subcutaneous injection 1 mg/kg).

The half-life is the time needed for the level to fall by half in the phase considered. A low value points to rapid decline.

The values above are taken from US7879835B2 (Korea Research Institute of Chemical Technology, priority 2004, dated 2011).
